Results published in patent US11331369B2, “Endoparasitic depsipeptides” (Zoetis Services LLC, priority 2017, dated 2022).

Tested on: microfilariae of Dirofilaria immitis
Assay: Dirofilaria immitis, Microfilaria (DiMF) In vitro Assay
Assay type: cell-based
Settings: 72 h, read-out: DiMF Minimum Effective Dose (MED), approximately 72 hours incubation, microfilariae assessed for survival or paralysis

| SMILES | minimal effective concentration [µM] |
| --- | --- |
| CC(C)C[C@H]1C(=O)O[C@H](Cc2ccc(Cn3ccc(-c4cnccn4)n3)cc2)C(=O)N(C)[C@@H](CC(C)C)C(=O)O[C@H](C)C(=O)N(C)[C@@H](CC(C)C)C(=O)O[C@H](Cc2ccc(Cn3ccc(-c4cnccn4)n3)cc2)C(=O)N(C)[C@@H](CC(C)C)C(=O)O[C@H](C)C(=O)N1C [Example 1b-195, (3S,6R,9S,12R,15S,18R,21S,24R)-3,9,15,21-tetraisobutyl-4,6,10,16,18,22-hexamethyl-12,24-bis[[4-[(3-pyrazin-2-ylpyrazol-1-yl)methyl]phenyl]methyl]-1,7,13,19-tetraoxa-4,10,16,22-tetrazacyclotetracosane-2,5,8,11,14,17,20,23-octaone] | 0.01 to 0.1 |
| CC(C)C[C@H]1C(=O)O[C@H](Cc2ccc(Cn3cc([N+](=O)[O-])cn3)cc2)C(=O)N(C)[C@@H](CC(C)C)C(=O)O[C@H](C)C(=O)N(C)[C@@H](CC(C)C)C(=O)O[C@H](Cc2ccccc2)C(=O)N(C)[C@@H](CC(C)C)C(=O)O[C@H](C)C(=O)N1C [Example 2-29, (3S,6R,9S,12R,15S,18R,21S,24R)-6-benzyl-3,9,15,21-tetraisobutyl-4,10,12,16,22,24-hexamethyl-18-(4-((4-nitro-1H-pyrazol-1-yl)methyl)benzyl)-1,7,13,19-tetraoxa-4,10,16,22-tetraazacyclotetracosan-2,5,8,11,14,17,20,23-octaone] | 0.001 to 0.01 |
| CC(C)C[C@H]1C(=O)O[C@H](Cc2ccc(Cn3ccnc3)cc2)C(=O)N(C)[C@@H](CC(C)C)C(=O)O[C@H](C)C(=O)N(C)[C@@H](CC(C)C)C(=O)O[C@H](Cc2ccccc2)C(=O)N(C)[C@@H](CC(C)C)C(=O)O[C@H](C)C(=O)N1C [Example 8-2, (3S,6R,9S,12R,15S,18R,21S,24R)-6-benzyl-18-[[4-(imidazol-1-ylmethyl)phenyl]methyl]-3,9,15,21-tetraisobutyl-4,10,12,16,22,24-hexamethyl-1,7,13,19-tetraoxa-4,10,16,22-tetrazacyclotetracosane-2,5,8,11,14,17,20,23-octaone] | 0.01 to 0.1 |
| CC(C)C[C@H]1C(=O)O[C@H](Cc2ccc(Cn3cc4c(n3)CN(C)C4)cc2)C(=O)N(C)[C@@H](CC(C)C)C(=O)O[C@H](C)C(=O)N(C)[C@@H](CC(C)C)C(=O)O[C@H](Cc2ccccc2)C(=O)N(C)[C@@H](CC(C)C)C(=O)O[C@H](C)C(=O)N1C [Example 10-32, (3S,6R,9S,12R,15S,18R,21S,24R)-6-benzyl-3,9,15,21-tetraisobutyl-4,10,12,16,22,24-hexamethyl-18-(4-((5-methyl-5,6-dihydropyrrolo[3,4-c]pyrazol-2(4H)-yl)methyl)benzyl)-1,7,13,19-tetraoxa-4,10,16,22-tetraazacyclotetracosan-2,5,8,11,14,17,20,23-octaone] | 0.01 to 0.1 |
| CC(C)C[C@H]1C(=O)O[C@H](Cc2ccc(Cn3cc(C4CCCC4)cn3)cc2)C(=O)N(C)[C@@H](CC(C)C)C(=O)O[C@H](C)C(=O)N(C)[C@@H](CC(C)C)C(=O)O[C@H](Cc2ccccc2)C(=O)N(C)[C@@H](CC(C)C)C(=O)O[C@H](C)C(=O)N1C [Example 2-38, (3S,6R,9S,12R,15S,18R,21S,24R)-6-benzyl-18-(4-((4-cyclopentyl-1H-pyrazol-1-yl)methyl)benzyl)-3,9,15,21-tetraisobutyl-4,10,12,16,22,24-hexamethyl-1,7,13,19-tetraoxa-4,10,16,22-tetraazacyclotetracosan-2,5,8,11,14,17,20,23-octaone] | 0.01 to 0.1 |
| CC(C)C[C@H]1C(=O)O[C@H](Cc2ccc(Cn3cc(S(=O)(=O)N4CCOCC4)cn3)cc2)C(=O)N(C)[C@@H](CC(C)C)C(=O)O[C@H](C)C(=O)N(C)[C@@H](CC(C)C)C(=O)O[C@H](Cc2ccccc2)C(=O)N(C)[C@@H](CC(C)C)C(=O)O[C@H](C)C(=O)N1C [Example 2-23, (3S,6R,9S,12R,15S,18R,21S,24R)-6-benzyl-3,9,15,21-tetraisobutyl-4,10,12,16,22,24-hexamethyl-18-(4-((4-(morpholinosulfonyl)-1H-pyrazol-1-yl)methyl)benzyl)-1,7,13,19-tetraoxa-4,10,16,22-tetraazacyclotetracosan-2,5,8,11,14,17,20,23-octaone] | 0.01 to 0.1 |
| CC(C)C[C@H]1C(=O)O[C@H](Cc2ccc(Cn3ccnc3C(C)(C)C)cc2)C(=O)N(C)[C@@H](CC(C)C)C(=O)O[C@H](C)C(=O)N(C)[C@@H](CC(C)C)C(=O)O[C@H](Cc2ccc(Cn3ccnc3C(C)(C)C)cc2)C(=O)N(C)[C@@H](CC(C)C)C(=O)O[C@H](C)C(=O)N1C [Example 6-6, (3S,6R,9S,12R,15S,18R,21S,24R)-6,18-bis[[4-[(2-tert-butylimidazol-1-yl)methyl]phenyl]methyl]-3,9,15,21-tetraisobutyl-4,10,12,16,22,24-hexamethyl-1,7,13,19-tetraoxa-4,10,16,22-tetrazacyclotetracosane-2,5,8,11,14,17,20,23-octaone] | 0.01 to 0.1 |
| CC(C)C[C@H]1C(=O)O[C@H](Cc2ccc(Cn3cc4c(n3)CNC4)cc2)C(=O)N(C)[C@@H](CC(C)C)C(=O)O[C@H](C)C(=O)N(C)[C@@H](CC(C)C)C(=O)O[C@H](Cc2ccccc2)C(=O)N(C)[C@@H](CC(C)C)C(=O)O[C@H](C)C(=O)N1C [Example 10-27, (3S,6R,9S,12R,15S,18R,21S,24R)-6-benzyl-18-(4-((5,6-dihydropyrrolo[3,4-c]pyrazol-2(4H)-yl)methyl)benzyl)-3,9,15,21-tetraisobutyl-4,10,12,16,22,24-hexamethyl-1,7,13,19-tetraoxa-4,10,16,22-tetraazacyclotetracosan-2,5,8,11,14,17,20,23-octaone] | 0.01 to 0.1 |
| CC(C)C[C@H]1C(=O)O[C@H](Cc2ccc(Cn3cc(-c4ccccn4)cn3)cc2)C(=O)N(C)[C@@H](CC(C)C)C(=O)O[C@H](C)C(=O)N(C)[C@@H](CC(C)C)C(=O)O[C@H](Cc2ccccc2)C(=O)N(C)[C@@H](CC(C)C)C(=O)O[C@H](C)C(=O)N1C [Example 2-47, (3S,6R,9S,12R,15S,18R,21S,24R)-6-benzyl-3,9,15,21-tetraisobutyl-4,10,12,16,22,24-hexamethyl-18-(4-((4-(pyridin-2-yl)-1H-pyrazol-1-yl)methyl)benzyl)-1,7,13,19-tetraoxa-4,10, 16,22-tetraazacyclotetracosan-2,5,8,11,14,17,20,23-octaone] | 0.001 to 0.01 |
| CC(C)C[C@H]1C(=O)O[C@H](Cc2ccc(Cn3nc(CO)cc3C3CC3)cc2)C(=O)N(C)[C@@H](CC(C)C)C(=O)O[C@H](C)C(=O)N(C)[C@@H](CC(C)C)C(=O)O[C@H](Cc2ccc(Cn3nc(CO)cc3C3CC3)cc2)C(=O)N(C)[C@@H](CC(C)C)C(=O)O[C@H](C)C(=O)N1C [Example 1b-8, (3S,6R,9S,12R,15S,18R,21S,24R)-6,18-bis(4-((5-cyclopropyl-3-(hydroxymethyl)-1H-pyrazol-1-yl)methyl)benzyl)-3,9,15,21-tetraisobutyl-4,10,12,16,22,24-hexamethyl-1,7,13,19-tetraoxa-4,10,16,22-tetraazacyclotetracosan-2,5,8,11,14,17,20,23-octaone] | 0.001 to 0.01 |
